Assay results as given in article PMC5557808 (Nature Communications, 2017).

Tests used:
human tongue = details: cited from earlier work
Protocol: Sensor design was driven by physiological insights on taste. Structurally diverse molecules are bitter tasting, including polyphenols, flavonoids, or methylxanthines (caffeine)[3]. The main function of sensing bitter taste is linked to the detection of poisonous substances. This would readily explain why bitter taste is so sensitively recognized with some molecules being recognized in the nanomolar range[4]. The human tongue senses bitterness of denatonium down to concentrations of 10 nM with consumer products containing as little as 30–100 ppm[5]. […] To date, it is the mo s t bitter substance known and th e b itter taste can be detected at concentrations of 10 ppb 2. Because of its lower toxicity as co mpar ed to the b itter molecules brucine 3 or str ychnin e it is wid el y used as an additive for denaturing alcohol, deter gents, dis ...

MMP-8 [1] = assay: MMP-8 buffer (200 mM NaCl, 50 mM Tris-HCl, 5 mM CaCl2, 1 µM ZnCl2, 0.05% Brij 35 at pH 6.8–7.0); details: human, 37 °C, up to 6 hours
[2] = test system: Leucine aminopeptidase (AP); assay: AP-incubated peptide (without MMP-8); details: porcine kidney
MMP-8 [3] = assay: MMP-8 in MMP-8 buffer; details: human, 37 °C, up to 22 h
[4] = test system: Leucine aminopeptidase from porcine kidney; assay: AP buffer (50 mM Tris-HCl, 1 mM CaCl2 and 150 mM NaCl at pH 7.0); details: 37 °C, up to 20 h
[5] = test system: Leucine aminopeptidase (AP); assay: AP buffer (50 mM Tris-HCl, 1 mM CaCl2, and 150 mM NaCl at pH 7.0); details: porcine kidney, 37 °C, up to 20 h
MMP-8 [6] = biological target: T1, MMP-8 (Homo sapiens, UniProt P22894); assay: MMP-8 cleavage of soluble PCL conjugates (HPLC decrease of main peak); format: biochemical; details: 900 ng/mL MMP-8, after 360 min; 0.5 mg/mL substrate, MMP-8 buffer pH 6.8-7.0, 37 °C under agitation; HPLC; mean, n = 8
T1 construct: purchased EMD Millipore Corporation (Billerica, MA)
T1 sequence (P22894 101-467): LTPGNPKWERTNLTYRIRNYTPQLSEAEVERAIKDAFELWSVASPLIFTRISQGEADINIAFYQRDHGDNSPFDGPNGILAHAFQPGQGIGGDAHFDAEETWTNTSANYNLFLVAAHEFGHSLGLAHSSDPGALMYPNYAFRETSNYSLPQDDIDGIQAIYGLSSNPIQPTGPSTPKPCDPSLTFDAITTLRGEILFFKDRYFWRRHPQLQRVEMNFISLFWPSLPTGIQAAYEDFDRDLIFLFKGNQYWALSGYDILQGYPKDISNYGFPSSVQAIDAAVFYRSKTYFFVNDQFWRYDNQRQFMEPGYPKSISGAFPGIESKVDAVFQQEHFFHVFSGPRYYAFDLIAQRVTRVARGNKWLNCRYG
Protocol: Pro-MMPs (e.g., MMP-8, MMP-1, or MMP-9; used at 0.1 mg/mL and >100.0 mU/mg based on the manufacturer’s information) were activated with p-aminophenylmercuric acetate (APMA) (8). For that, a 10 mM stock solution of APMA was freshly prepared in 0.1 M NaOH and a 10:1 (v/v) ratio of the respective proenzyme and the APMA solution (MMP:APMA) was incubated for 3 h at 37 °C. The activity was confirmed using the MMP-8 detection kit (QuickZyme Biosciences, Leiden, the Netherlands). A stock solution (90 µg/mL) of the activated MMP was prepared (used for cleavage studies on the PCL or the fully assembled microparticle-PCL-tastant setup (sensor), in MMP-8 buffer (200 mM NaCl, 50 mM Tris-HCl, 5 mM CaCl2, 1 µM ZnCl2, 0.05% Brij 35 at pH 6.8–7.0). All MMP experiments are described in detail in the Supplementary Methods. […]
in water ( v/v)) and eluent B (0.1 % TFA in 2:3 water-acetonitrile (v/v)) and a gradient from 33 to 80% elu ent B within 30 minutes. UV absorption was r ead at λ = 280 nm or 220 nm. After freezing the samples at -80 °C, fr eeze- drying was performed on a Christ Alpha 1 -4 de vi ce (Martin Christ Gefriertrocknungs anlagen, Osterode am Harz, G e r ma n y) at a desublimers ’ te mperature of - 60 ° C, pressure of 1.030 mbar and processing temperature of 19 °C.
Pro-MMPs (e. g. MMP -8, MMP -1 or MMP-9; adapted to 0.1 mg/mL and > 100.0 mU/mg based on manufacturer information and when appropriate) were activated with APMA 8. For that, a 10 mM stock solution of APMA in 0.1 M NaOH was freshly prepared and a 10:1 (v/v) ratio of the r especti ve proenzyme and APMA solution (MMP:APMA) was incubated for 3 h at 37 °C. The activity was conf ir med using the MMP-8 detection kit (Q uic kZ ym e® Biosciences, Leiden, Netherlands). A stock solution (90 µg/mL) of the activated MMP was prepared (used for cleavage studies on the pr ot eas e-cleavable linker (PCL; e.g. Figure 2) or the fully assemb led microparticle -PCL- t ast ant setup (sensor; e.g. Figure 3) , in MMP -8 buffer (200 mM NaCl, 50 mM Tris-H Cl, 5 mM C aC l2, 1 µM ZnCl2, 0.05 % Brij35 at pH 6.8- 7.0). A ll MMP -8 exp eriments wer e performed as follo ws. 25 µg of the sensor ( see chap ter : Peptide-coupling to beads (Sensor)) in 100 µL MMP-buffer or 1 mg of FP LC -purified and lyophilized PCL as described dissolved 2 mL M MP -buffer resulting in a final concentration of 0.5 mg/ mL substrate was used. […]
Figure 2A , 3, 4B ). […]
(sensor) in co mpar ison to negative controls (the negative controls for the PCL an d sensor exper i men ts were b y incubation without MMP under otherwise identical conditions). The relative d ecreas e of the PCL’s ma in peak was char act er ized by HPLC (PCL) or of the sensor’s fluorescence b y FACS (sensor) in comparison to control. […]

[7] = test system: MMP-1, MMP-8, MMP-9, MMP-13; assay: MMP selectivity of the soluble PCL carboxyfluorescein conjugate; format: biochemical, human; details: MMPs at 900 ng/mL, 60 min, 37 °C; HPLC
Protocol: Pro-MMPs (e.g., MMP-8, MMP-1, or MMP-9; used at 0.1 mg/mL and >100.0 mU/mg based on the manufacturer’s information) were activated with p-aminophenylmercuric acetate (APMA) (8). For that, a 10 mM stock solution of APMA was freshly prepared in 0.1 M NaOH and a 10:1 (v/v) ratio of the respective proenzyme and the APMA solution (MMP:APMA) was incubated for 3 h at 37 °C. The activity was confirmed using the MMP-8 detection kit (QuickZyme Biosciences, Leiden, the Netherlands). […]
Enzymatic reactions were stopped using 4 µL 250 mM ED TA in case of the sensor or heating in cas e of uncoupled PCL (95 °C for 15 minutes; the beads of the sensor would melt at h eatin g due to a different method used). Cleavage was analyzed by […] an al ysis (PCL) or by flow c yto metr y (sensor) in co mpar ison to negative controls (the negative controls for the PCL an d sensor exper i men ts were b y incubation without MMP under otherwise identical conditions). The relative d ecreas e of the PCL’s ma in peak was char act er ized by HPLC (PCL) or of the sensor’s fluorescence b y FACS (sensor) in comparison to control. […]

## CC[N+](CC)(CC(=O)Nc1c(C)cccc1C)Cc1ccccc1.[Cl-] [Denatonium chloride]
Human tongue; ref 2 (Supplementary References)
  concentration at which the bitter taste can be detected: 10 ppb

## De-GPQGIAGQ-A( N3)-Q
MMP-8 [1]
  cleaved bond: G-I
[2]
  not cleaved: one HPLC-peak at 7.178 min with a mass of 1331.9 Da, as negative control
MMP-8 [3]
  cleaved bond: G-I

## De-GPQGIAGQ-A(N3)-Q
[4]
  not cleaved: one HPLC peak, mass 1331.9 Da after AP incubation

## I AGQ-K-De
[5]
  fragment found: denatonium coupled to lysine

## CC[N+](CC)(CC(=O)Nc1c(C)cccc1C)Cc1ccccc1 [Denatonium, Denatonium benzoate]
Human tongue
  concentration down to which the human tongue senses bitterness: 10 nM

## Cf-GP QGIA GQ-A( N3)-Q [ID #1b, PCL carboxyfluorescein conjugate]
MMP-8 [6]
  Cleavage (%) of the PCL over incubation time, plateau: > 50%
[7]
  MMP sensitivity rank order of the soluble PCL conjugate: MMP-8 = MMP-9 > MMP-13 > MMP-1
